Laboratory results from article PMC3723632, “A Multi-targeted Drug Candidate with Dual Anti-HIV and Anti-HSV Activity” (PLoS Pathogens, 2013).
In brackets after ≈: the same amount, converted by molar mass.

Experiments:
HSV-1 and HSV-2 = assay: Organotypic epithelial raft cultures of PHKs, virus production; type: cell-based; settings: HSV-1 and HSV-2, 20 µg/ml
Description: Figure 3 Inhibitory activities of tenofovir, adefovir, and PMEO-DAPym against laboratory HSV-1 and HSV-2 strains in organotypic epithelial raft cultures. Panels A (HSV-1) and B (HSV-2): Drugs at different concentrations were added to the raft cell cultures on the day of infection (10 days after initiation of differentiation). The drugs remained in the presence of the cells for 5 days until the rafts were frozen for determination of virus production with a plaque assay in HEL cell cultures. Error bars represent S.D.
The epithelial cells were allowed to stratify. […] Virus production per raft was then calculated.

HSV-2 (G) = test system: HSV-2 (G); set-up: method as in PMID 22018238; settings: tonsilar tissue; cited from earlier work
HSV = test system: HSV; set-up: method as in PMID 20643915, PMID 20709216; settings: CAPRISA trial; cited from earlier work
CXCR4 or CXCR3 = assay: Flow cytometry of CXCR4 and CXCR3 expression on PBMC; type: cell-based, human; settings: data not shown
Description: PBMC were cultured in the presence of adefovir, tenofovir, and PMEO-DAPym and incubated at 37°C in a humidified, 5% CO2-controlled atmosphere. The expression of cellular activation markers was measured after 3 days of culture. Briefly, after washing the cells with PBS containing 2% FCS, we incubated them with PerCP-conjugated anti-CD4 mAb (clone SK3) in combination with PE-conjugated anti-CD25, anti-CD69, or anti-HLA-DR mAbs for 30 min at room temperature. For aspecific background staining, cells were stained in parallel with Simultest Control IgG γ1/γ2a and PerCP-conjugated mouse IgG1. Finally, the cells were washed with PBS, fixed with 1% formaldehyde solution, and analyzed with a FACSCalibur (BD Biosciences, San Jose, CA); data were acquired with CellQuest software and further analyzed with the FLOWJO software (Tree Star, San Carlos, CA). The expression of the chemokine receptors was measured after 24 h, and PBMC were incubated with PerCP-conjugated anti-CD4 mAb (clone SK3) in combination with APC-conjugated anti-CXCR4 mAb (clone 12G5) and PE-conjugated anti-CCR5 (clone 2D7) or anti-CXCR3 (clone 1C6). To evaluate the biological effects of the β-chemokines produced by drug-treated PBMC, freshly isolated PBMC were incubated for 1 h at 37°C with supernatants collected from PBMC cultures treated with compounds for 24 h. […]

HSV-1 (RV-174) = assay: Virus yield reduction assay in HEL cells, HSV-1 clinical isolate; settings: for EC90: Human alphaherpesvirus 1, HEL
Description: These assays were carried out in HEL cell monolayers at different times post infection. […] After 2 h at 37°C, the cells were washed and medium containing different concentrations of PMEO-DAPym (in duplicate) was added. Following 24, 48, and 72 h of incubation, we released the viruses by freeze-thawing and then titrated them using a plaque assay in HEL cells.

PBMC [1] = assay: Flow cytometry of activation markers on PBMC; type: cell-based, human; settings: 72 h exposure
Description: Figure 10 Expression of activation markers on PBMCs treated with adefovir, tenofovir, or PMEO-DAPym. PBMCs were incubated with adefovir, tenofovir, or PMEO-DAPym for 3 days. The mitogenic lectin PHA (at 2 µg/ml) was included as a positive control. We measured cell surface expression of CD4 and the activation markers CD69 (top panel), CD25 (middle panel), and HLA-DR (bottom panel) using flow cytometry with the […] CD4-specific mAb (clone SK3) and the phycoerythrin-labeled CD69, CD25, HLA-DR-specific mAbs. Shown are means ± SEM from two independent experiments.
PBMC were cultured in the presence of adefovir, tenofovir, and PMEO-DAPym and incubated at 37°C in a humidified, 5% CO2-controlled atmosphere. The expression of cellular activation markers was measured after 3 days of culture. […] Finally, the cells were washed with PBS, fixed with 1% formaldehyde solution, and analyzed with a FACSCalibur (BD Biosciences, San Jose, CA); data were acquired with CellQuest software and further analyzed with the FLOWJO software (Tree Star, San Carlos, CA). The expression of the chemokine receptors was measured after 24 h, and PBMC were incubated with PerCP-conjugated anti-CD4 mAb (clone SK3) in combination with APC-conjugated anti-CXCR4 mAb (clone 12G5) and PE-conjugated anti-CCR5 (clone 2D7) or anti-CXCR3 (clone 1C6). […]

M/M cultures = assay: Viability of M/M cultures; type: cell-based, human; settings: 100 µg/ml
Description: Monocyte/macrophage (M/M) lineage cells can be infected by HSV-2 and HIV-1. M/M reside in genital herpes lesions and are thought to be reservoirs of HIV [6], [23]. […] Lower concentrations were dose-dependently inhibitory, with EC50 values ranging between 0.02 and 0.2 µg/ml (Table 1, Table 3).

PBMC [2] = assay: PBMC viability (trypan blue dye exclusion, flow cytometry); type: cell-based, human; settings: 20, 100 and 500 µg/ml

C[C@H](Cn1cnc2c(N)ncnc21)OCP(=O)(O)O [Tenofovir, 9-(2-phosphonylmethoxypropyl)adenine]
reduction of herpesvirus replication (HSV-1 and HSV-2): < 0.5 log10 | concentration that comparably inhibited HSV-2 replication (HSV-2 (G)): 240 µg/mL | prevention of HSV infection (HSV): 51%

Nc1cc(OCCOCP(=O)(O)O)nc(N)n1 [PMEO-DAPym, 6-phosphonylmethoxyethoxy-2,4-diaminopyrimidine]
downregulation of CXCR4 or CXCR3 (CXCR4 or CXCR3): No downregulation | EC90 (HSV-1 (RV-174); 24 h, RV-174, moi = 5x10^-3, 24 hours): < 1 µg/mL | EC90 (HSV-1 (RV-174); 24 h, RV-174, moi = 5x10^-4, 24 hours): 2.27 µg/mL (≈ 8.59 µM) | EC90 (HSV-1 (RV-174); 48 h, RV-174, moi = 5x10^-3, 48 hours): 1 µg/mL (≈ 3.79 µM) | EC90 (HSV-1 (RV-174); 48 h, RV-174, moi = 5x10^-4, 48 hours): < 1 µg/mL | EC90 (HSV-1 (RV-174); 72 h, RV-174, moi = 5x10^-3, 72 hours): 1 µg/mL (≈ 3.79 µM) | EC90 (HSV-1 (RV-174); 72 h, RV-174, moi = 5x10^-4, 72 hours): < 1 µg/mL | EC99 (HSV-1 (RV-174); RV-174, moi = 5x10^-3, 24 hours): 3.81 µg/mL | EC99 (HSV-1 (RV-174); RV-174, moi = 5x10^-3, 48 hours): 4.96 µg/mL | EC99 (HSV-1 (RV-174); RV-174, moi = 5x10^-3, 72 hours): 3.92 µg/mL | EC99 (HSV-1 (RV-174); RV-174, moi = 5x10^-4, 24 hours): 6.26 µg/mL | EC99 (HSV-1 (RV-174); RV-174, moi = 5x10^-4, 48 hours): 2.74 µg/mL | EC99 (HSV-1 (RV-174); RV-174, moi = 5x10^-4, 72 hours): 3.59 µg/mL | upregulation of cell activation markers (HLA-DR, CD25, CD69 and others) (PBMC [1]): none of the cell activation markers | effect on the viability of M/M cultures (M/M cultures): No effect on the viability | PBMC viability (PBMC [2]): did not affect PBMC viability
